Measurements as given in patent publication US20260138969A1 (Korea Research Institute of Chemical Technology, priority 2023, published 2026).

Legend:
[1] = target: T1, recombinant human ASK1 protein (Homo sapiens, UniProt Q99683); test: Evaluation of ASK1 inhibition activity ([gamma-33P]-ATP, scintillation counting); assay type: biochemical
T1 sequence (Q99683 1-1374): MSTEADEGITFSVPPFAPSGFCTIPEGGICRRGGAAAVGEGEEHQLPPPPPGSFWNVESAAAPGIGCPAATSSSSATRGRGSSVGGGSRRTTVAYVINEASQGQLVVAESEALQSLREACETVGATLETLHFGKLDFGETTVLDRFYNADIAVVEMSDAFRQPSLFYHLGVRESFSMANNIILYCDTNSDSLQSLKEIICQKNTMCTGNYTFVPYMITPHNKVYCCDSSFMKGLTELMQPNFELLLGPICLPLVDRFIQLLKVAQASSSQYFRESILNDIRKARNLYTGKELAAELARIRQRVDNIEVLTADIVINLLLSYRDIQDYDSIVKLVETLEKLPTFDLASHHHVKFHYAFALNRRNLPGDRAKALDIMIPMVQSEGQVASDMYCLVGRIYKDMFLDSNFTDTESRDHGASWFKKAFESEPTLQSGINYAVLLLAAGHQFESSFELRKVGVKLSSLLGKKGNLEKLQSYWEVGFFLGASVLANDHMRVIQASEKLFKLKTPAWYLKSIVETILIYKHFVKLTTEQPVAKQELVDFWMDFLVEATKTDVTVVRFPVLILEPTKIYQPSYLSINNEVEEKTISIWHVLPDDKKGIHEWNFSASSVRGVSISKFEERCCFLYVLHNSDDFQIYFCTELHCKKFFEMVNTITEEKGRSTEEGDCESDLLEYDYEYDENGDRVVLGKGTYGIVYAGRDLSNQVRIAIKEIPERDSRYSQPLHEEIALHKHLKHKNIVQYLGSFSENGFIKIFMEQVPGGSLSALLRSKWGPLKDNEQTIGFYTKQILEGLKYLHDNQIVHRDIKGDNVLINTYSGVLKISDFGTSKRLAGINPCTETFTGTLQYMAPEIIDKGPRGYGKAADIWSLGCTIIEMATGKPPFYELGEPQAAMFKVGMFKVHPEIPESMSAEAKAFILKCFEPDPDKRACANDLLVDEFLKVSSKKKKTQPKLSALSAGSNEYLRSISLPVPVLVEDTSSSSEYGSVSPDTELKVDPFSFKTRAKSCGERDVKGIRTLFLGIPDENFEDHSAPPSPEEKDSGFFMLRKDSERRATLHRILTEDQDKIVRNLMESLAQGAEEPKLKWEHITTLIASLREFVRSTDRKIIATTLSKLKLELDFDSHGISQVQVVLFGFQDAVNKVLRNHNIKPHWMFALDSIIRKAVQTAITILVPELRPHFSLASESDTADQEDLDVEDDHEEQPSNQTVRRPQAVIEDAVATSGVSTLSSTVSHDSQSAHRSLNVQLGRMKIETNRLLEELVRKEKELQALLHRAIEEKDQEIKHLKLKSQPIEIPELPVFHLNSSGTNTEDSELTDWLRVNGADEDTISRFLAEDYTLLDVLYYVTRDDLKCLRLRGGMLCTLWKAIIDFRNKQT
Experimental: The recombinant human ASK1 protein was initiated by adding a mixture of Mg/ATP to the reaction solution (8 mM MOPS PH 7.0, 0.2 mM EDTA, 0.33 mg/mL myelin basic protein, 10 mM Mg Acetate and [gamma-33P]-ATP), and the reaction was terminated by adding 0.5% phosphoric acid after 40 min at room temperature.

[2] = MDR-MDCK cell membrane permeability assessment; assay type: in vitro ADME; conditions: dog; MDCK-MDR1 monolayer, 37° C., 2 hours
Experimental: (§1) MDCK-MDR1 cells (5×10^5 cells/mL) were incubated on a 24-transwell plate (Corning, NY, USA) for 4 days to measure permeability through a single layer of MDR-MDCK cells. The medium was replaced with a new medium every two days, and the electrical resistance between epithelial tissues (TEER) was measured using a Millicell® ERS-2 Volohmmeter (Merck KGaA, Darmstadt, Germany), and the cell membrane permeability test was performed after confirming that this value was greater than or equal to 300 Ohm.cm^2.
(§2) The apical and basolateral chambers were washed twice each in the order of Hanks' Balanced Salt Solution (HBSS) containing DPBS buffer and 10 mM Hydroxyethyl piperazine Ethane sulfonic acid (HEPES), and in the final washing step, HBSS was filled and maintained at a stable state at 37° C. for 30 minutes. After 30 minutes, the test material was instilled in each chamber and left at 37° C. for 2 hours, and the culture medium of the transferred layer was collected at 30-minute intervals, and the collected amount was supplemented with new HBSS.
(§3) The apparent permeability coefficient (Papp, cm/sec) was calculated using the following formula:
(§4) [formula] • Papp: Apparent permeability • dQ/dt: Permeability of the drug • A: Area of the filter membrane on which the cells are laid • C_0: Initial concentration of the drug
(§5) In addition, the Efflux ratio was calculated as follows: […]

[3] = tested on: MDR1; test: MDR-MDCK cell membrane permeability assessment; assay type: in vitro ADME; conditions: dog; MDCK-MDR1 monolayer
Experimental: as §1, §2, §3, §4, §5

[4] = tested on: α-Syn transgenic Parkinson's disease mouse model; test: α-Syn transgenic Parkinson's disease mouse model: step error (beam test); assay type: in vivo; conditions: at 7 and 9 months; Memantine 10 mg/kg, Example 3 2/10/50 mg/kg, Example 2 2 mg/kg PO QD; vs G2
Experimental: (§6) The test drug was administered once daily (QD) via oral administration (PO) with a solution of 5 ml/kg for 5 months from 4 months to 9 months of age. Motor behavior tests (beam test) and neurological scores (modified Irwin test) were performed at 4 months (before administration), 7 months, and 9 months. After the final behavioral test, tissue samples were taken. Weight was measured on the same day once a week from 4 months of age until the end of the study.
The procedure described by Fleming et al. (J Neurosci, 24:9434-40, 2004) was adopted as the beam test (Challenging Beam Traversal). Exercise capacity was measured with a new beam test that was a modification of the existing beam walking test. The beam is made of Plexiglas and consists of four sections (each 25 cm and a total length of 1 m), each with a different width. The beam is designed to start at 3.5 cm wide and gradually narrow in increments of 0.5 cm×1 cm. A shelf 1 cm wide was placed 1.0 cm below the top surface of the beam.
The mouse was trained to cross the length of the beam, starting from the widest section and ending with the narrowest and most difficult section. The narrow end of the beam is designed to connect directly to the mouse's house cage. The mice were trained for two days before testing, and all training was carried out without a mesh grid. On the first day, two auxiliary exercises were performed, in which the mouse was placed on a beam and the home cage was placed close to the mouse. This induces it to move forward along the beam. […]
The error was counted if the limb (front or hind leg) passed through the grid during forward movement and was visible between the grid and the beam surface. […] Error was measured by scoring each limb slippage individually. For example, a mouse with three limbs slipping off the grid in one step was rated with an error score of 3 points, while a mouse with only one limb slipped off the grid in one step was evaluated with an error score of 1 in that step. […] The number of step errors and the time it took to cross were measured and averaged in all five experiments.

[5] = tested on: α-Syn transgenic Parkinson's disease mouse model; test: α-Syn transgenic Parkinson's disease mouse model: microglial reduction (Iba-1); assay type: in vivo; conditions: 9 months of age; Memantine 10 mg/kg (G3), G4 2 mg/kg, G5 10 mg/kg, G7 2 mg/kg PO QD
Experimental: as §6
At 9 months of age, the measurement period ended, the mice were anesthetized, and then the experiment was terminated by cardiac puncture according to IACUC guidelines. Mice were perfused transcardially with 0.9% saline for tissue staining, followed by 4% paraformaldehyde until the mice were fixed. The brains were isolated and immobilized by soaking in 4% paraformaldehyde at 4° C. for 24 hours, followed by 30% sucrose added to PBS containing 0.02% sodium azide and stored at 4° C. for 3 days. Brain samples embedded in OCT compounds were sectioned to a thickness of 20 μm using Leica CM1950 (Leica Microsystems, Germany). The sections were stored at 4° C. in a preservation solution until they were stained by antibodies. […]
To assess microgliosis of the cortex, Iba-1-stained brain tissue was imaged in experimental example 10.5 using an immunofluorescence microscope (Olympus, BZ21) in Olympus. Each marker was manually counted to quantify Iba1.

Compound `Cc1cc(F)c(C(=O)Nc2cccc(-n3nnc4c3CCCCC4)n2)cc1-n1cnc(C2CC2)c1` [Example 4, 5-(4-cyclopropyl-1H-imidazole-1-yl)-2-fluoro-4-methyl-N-(6-(5,6,7,8-tetrahydrocyclohepta[d][1,2,3]triazole-1 (4H)-yl)pyridine-2-yl)benzamide] has an IC50 [1] of 92 nM, a Papp A→B at 2 h [2] of 57.3 ± 4.23 ×10⁻⁶ cm/s and a Papp B→A at 2 h [2] of 87.4 ± 3.39 ×10⁻⁶ cm/s. It also gave an efflux ratio at 2 h [3] of 1.53.
For `CC12CC3CC(C)(C1)CC(N)(C3)C2` [Memantine, reference compound], the “number of step errors (beam test)” value [4] was “significant reduction in the number of step errors compared to Group G2” and the “number of IBA-1 positive cells in the cerebral cortex” value [5] was “significantly reduced”.
